# Several values for one entry are separate records, joined by “and”; a condition that tells them apart may be missing. Equal values may be shown once. ± gives the expanded uncertainty stated by the source.
# Conditions: Liquid
compound,measurement,setting,value
"FCC(F)(F)F [1,1,1,2-tetrafluoroethane]",vapor or sublimation pressure,273.15 K,294.2 ± 2.5 kPa
same,vapor or sublimation pressure,283.15 K,416.9 ± 3.3 kPa
same,vapor or sublimation pressure,293.15 K,571.9 ± 4.3 kPa
same,vapor or sublimation pressure,303.15 K,770.4 ± 5.6 kPa
same,vapor or sublimation pressure,313.15 K,1012.8 ± 7.1 kPa
same,vapor or sublimation pressure,323.15 K,1313.8 ± 9.1 kPa
"CC(F)(F)F [1,1,1-trifluoroethane]",vapor or sublimation pressure,268.15 K,529.2 ± 4 kPa
same,vapor or sublimation pressure,278.15 K,722.4 ± 5.3 kPa
same,vapor or sublimation pressure,288.15 K,962 ± 6.8 kPa
same,vapor or sublimation pressure,298.15 K,1261.8 ± 8.7 kPa
same,vapor or sublimation pressure,308.15 K,1619.8 ± 11 kPa
same,vapor or sublimation pressure,318.15 K,2055.2 ± 14 kPa
CCC [propane],vapor or sublimation pressure,268.15 K,407.9 ± 3.3 kPa
same,vapor or sublimation pressure,273.15 K,474.6 ± 3.7 kPa
same,vapor or sublimation pressure,278.15 K,549.4 ± 4.2 kPa
same,vapor or sublimation pressure,283.15 K,636.6 ± 4.7 kPa
same,vapor or sublimation pressure,288.15 K,735 ± 5.4 kPa
same,vapor or sublimation pressure,293.15 K,836.2 ± 6 kPa
same,vapor or sublimation pressure,298.15 K,954.8 ± 6.8 kPa
same,vapor or sublimation pressure,303.15 K,1078.4 ± 7.6 kPa
same,vapor or sublimation pressure,308.15 K,1213 ± 8.4 kPa
same,vapor or sublimation pressure,313.15 K,1369 ± 12 kPa and 1363.8 ± 9.4 kPa
same,vapor or sublimation pressure,318.15 K,1530.8 ± 10 kPa
same,vapor or sublimation pressure,323.15 K,1709.2 ± 12 kPa
